Values after ≈ are worked out from the molar mass of the structure shown. Where two headings read alike, the source gives them in different places.
Tests used:
P. aeruginosa ATCC 35151 = experiment: microbe, parasite or virus in culture; assay type: cell-based; details: Pseudomonas aeruginosa, ATCC35151, read-out: Minimum inhibitory concentration, P. aeruginosa ATCC 35151
N. gonorrhoeae WHO Q = experiment: Liquid broth MIC in Fastidious broth; details: Neisseria gonorrhoeae
P. aeruginosa ATCC 27853 = experiment: microbe, parasite or virus in culture; assay type: cell-based; details: Pseudomonas aeruginosa, ATCC27853, read-out: Minimum inhibitory concentration, P. aeruginosa ATCC 27853
A. baumannii CDC-0045 = experiment: microbe, parasite or virus in culture; assay type: cell-based; details: Acinetobacter baumannii, CDC0045, read-out: MIC, A. baumannii CDC-0045
[1] = test system: P. aeruginosa (ΔmexAB-oprM); experiment: Broth microdilution MIC in iron-depleted CAMHB (IDM); assay type: cell-based; details: Pseudomonas aeruginosa; iron-depleted CAMHB (IDM); […]; read-out: Minimum inhibitory concentration, P. aeruginosa ΔmexAB-oprM
A. baumannii CDC-0036 = experiment: microbe, parasite or virus in culture; assay type: cell-based; details: Acinetobacter baumannii, CDC0036, read-out: MIC, A. baumannii CDC-0036
P. aeruginosa CDC-0090 = experiment: microbe, parasite or virus in culture; assay type: cell-based; details: Pseudomonas aeruginosa, CDC0090, read-out: Minimum inhibitory concentration, P. aeruginosa CDC-0090
[2] = test system: B. thailandensis ATCC 700388; experiment: microbe, parasite or virus in culture; assay type: cell-based; details: Burkholderia thailandensis, ATCC700388, read-out: Minimum inhibitory concentration (MIC), B. thailandensis ATCC 700388
N. gonorrhoeae WHO X = experiment: Liquid broth MIC in Fastidious broth; details: Neisseria gonorrhoeae
A. baumannii ATCC 17978 = experiment: microbe, parasite or virus in culture; assay type: cell-based; details: Acinetobacter baumannii, ATCC17978, read-out: MIC, A. baumannii ATCC 17978
P. aeruginosa CDC-0110 = experiment: microbe, parasite or virus in culture; assay type: cell-based; details: Pseudomonas aeruginosa, CDC0110, read-out: Minimum inhibitory concentration, P. aeruginosa CDC-0110
N. gonorrhoeae CDC-0197 = experiment: Liquid broth MIC in Fastidious broth; details: Neisseria gonorrhoeae
A. baumannii ATCC 19606 = experiment: microbe, parasite or virus in culture; assay type: cell-based; details: Acinetobacter baumannii, ATCC19606, read-out: MIC, A. baumannii ATCC 19606
[3] = test system: B. humptydooensis ATCC BAA-2767; experiment: microbe, parasite or virus in culture; assay type: cell-based; details: Burkholderia humptydooensis, ATCCBAA2767, read-out: Minimum inhibitory concentration (MIC), B. humptydooensis ATCC BAA-2767
A. baumannii 1258916 = experiment: microbe, parasite or virus in culture; assay type: cell-based, Acinetobacter baumannii; details: Acinetobacter baumannii, 1258916, read-out: MIC, A. baumannii 1258916
[4] = read-out: Minimum Inhibitory Concentration, WHO Q
[5] = read-out: Minimum Inhibitory Concentration, WHO X
[6] = CDC0197, read-out: Minimum Inhibitory Concentration, CDC-0197
[7] = read-out: Minimum Inhibitory Concentration (MIC), N. gonorrhoeae WHO Q
[8] = read-out: Minimum Inhibitory Concentration (MIC), N. gonorrhoeae WHO X
[9] = CDC0197, read-out: Minimum Inhibitory Concentration (MIC), N. gonorrhoeae CDC-0197

Row | SMILES | MIC (P. aeruginosa ATCC 35151) [µg/mL] | MIC (N. gonorrhoeae WHO Q; [4]) [µg/mL] | MIC (P. aeruginosa ATCC 27853) [µg/mL] | MIC (A. baumannii CDC-0045) [µg/mL] | MIC [1] [µg/mL] | MIC (A. baumannii CDC-0036) [µg/mL] | MIC (P. aeruginosa CDC-0090) [µg/mL] | MIC [2] [µg/mL] | MIC (N. gonorrhoeae WHO X; [5]) [µg/mL] | MIC (A. baumannii ATCC 17978) [µg/mL] | MIC (P. aeruginosa CDC-0110) [µg/mL] | MIC (N. gonorrhoeae CDC-0197; [6]) [µg/mL] | MIC (A. baumannii ATCC 19606) [µg/mL] | MIC [3] [µg/mL] | MIC (A. baumannii 1258916) [µg/mL] | MIC (N. gonorrhoeae WHO Q; [7]) [µg/mL] | MIC (N. gonorrhoeae WHO X; [8]) [µg/mL] | MIC (N. gonorrhoeae CDC-0197; [9]) [µg/mL]
1 | O=C(NCCCS(=O)(=O)N1CCN(C(=O)NC(C(=O)N[C@H]2Cc3ccc(F)c(C(=O)O)c3OB2O)c2cc(F)c(O)c(O)c2Cl)C1=O)c1ccccc1 (stereo partly drawn) [Example 268, (3R)-3-(2-(3-((3-benzamidopropyl)sulfonyl)-2-oxoimidazolidine-1-carboxamido)-2-(2-chloro-5-fluoro-3,4-dihydroxyphenyl)acetamido)-7-fluoro-2-hydroxy-3,4-dihydro-2H-benzo[e][1,2]oxaborinine-8-carboxylic acid] | < 1 | 16 to 32 (≈ 20.5 to 41 µM) | 8 to 16 (≈ 10.3 to 20.5 µM) | 2 to 4 (≈ 2.56 to 5.13 µM) | < 1 | 2 to 4 (≈ 2.56 to 5.13 µM) | 2 to 4 (≈ 2.56 to 5.13 µM) | > 128 | > 64 | < 1 | 8 to 16 (≈ 10.3 to 20.5 µM) | 16 to 32 (≈ 20.5 to 41 µM) | < 1 | > 128 | < 1 |  |  | 
2 | O=C(NCCN1CCN(C(=O)NC(C(=O)N[C@H]2Cc3ccc(F)c(C(=O)O)c3OB2O)c2cc(F)c(O)c(O)c2Cl)C(=O)C1=O)Nc1cccc(O)c1 (stereo partly drawn) [Example 220, (3R)-3-(2-(2-chloro-5-fluoro-3,4-dihydroxyphenyl)-2-(4-(2-(3-(3-hydroxyphenyl)ureido)ethyl)-2,3-dioxopiperazine-1-carboxamido)acetamido)-7-fluoro-2-hydroxy-3,4-dihydro-2H-benzo[e][1,2]oxaborinine-8-carboxylic acid] | < 1 |  | 2 to 4 (≈ 2.63 to 5.26 µM) | 2 to 4 (≈ 2.63 to 5.26 µM) | < 1 | 8 to 16 (≈ 10.5 to 21 µM) | < 1 | 8 to 16 (≈ 10.5 to 21 µM) |  | < 1 | < 1 |  | < 1 | 32 to 64 (≈ 42.1 to 84.1 µM) | 2 to 4 (≈ 2.63 to 5.26 µM) | > 64 | > 64 | > 64
3 | O=C(CN1CCN(C(=O)N[C@@H](C(=O)N[C@H]2Cc3ccc(F)c(C(=O)O)c3OB2O)c2cc(F)c(O)c(O)c2Cl)C(=O)C1=O)NCc1ccncc1 [Example 239, (R)-3-((R)-2-(2-chloro-5-fluoro-3,4-dihydroxyphenyl)-2-(2,3-dioxo-4-(2-oxo-2-((pyridin-4-ylmethyl)amino)ethyl)piperazine-1-carboxamido)acetamido)-7-fluoro-2-hydroxy-3,4-dihydro-2H-benzo[e][1,2]oxaborinine-8-carboxylic acid] | < 1 |  | 2 to 4 (≈ 2.74 to 5.47 µM) | < 1 | < 1 | 2 to 4 (≈ 2.74 to 5.47 µM) | 2 to 4 (≈ 2.74 to 5.47 µM) | 8 to 16 (≈ 10.9 to 21.9 µM) |  | < 1 | < 1 |  | < 1 | 32 to 64 (≈ 43.8 to 87.6 µM) | < 1 | > 64 | > 64 | 16 to 32 (≈ 21.9 to 43.8 µM)
4 | O=C(NCCN1CCN(C(=O)NC(C(=O)N[C@H]2Cc3ccc(F)c(C(=O)O)c3OB2O)c2cc(F)c(O)c(O)c2Cl)C(=O)C1=O)c1ccccc1 (stereo partly drawn) [Example 207, (3R)-3-(2-(4-(2-benzamidoethyl)-2,3-dioxopiperazine-1-carboxamido)-2-(2-chloro-5-fluoro-3,4-dihydroxyphenyl)acetamido)-7-fluoro-2-hydroxy-3,4-dihydro-2H-benzo[e][1,2]oxaborinine-8-carboxylic acid] | < 1 |  | 2 to 4 (≈ 2.74 to 5.48 µM) | 2 to 4 (≈ 2.74 to 5.48 µM) | < 1 | 8 to 16 (≈ 11 to 21.9 µM) | < 1 | 8 to 16 (≈ 11 to 21.9 µM) |  | < 1 | < 1 |  | 2 to 4 (≈ 2.74 to 5.48 µM) | < 1 | 2 to 4 (≈ 2.74 to 5.48 µM) | 16 to 32 (≈ 21.9 to 43.8 µM) | > 64 | 16 to 32 (≈ 21.9 to 43.8 µM)
5 | O=C(NCCCN1CCN(C(=O)NC(C(=O)N[C@H]2Cc3ccc(F)c(C(=O)O)c3OB2O)c2cc(F)c(O)c(O)c2Cl)C1=O)c1ccncc1 (stereo partly drawn) [Example 256, (3R)-3-(2-(2-chloro-5-fluoro-3,4-dihydroxyphenyl)-2-(3-(3-(isonicotinamido)propyl)-2-oxoimidazolidine-1-carboxamido)acetamido)-7-fluoro-2-hydroxy-3,4-dihydro-2H-benzo[e][1,2]oxaborinine-8-carboxylic acid] | < 1 | > 64 | 2 to 4 (≈ 2.79 to 5.58 µM) | < 1 | < 1 | 2 to 4 (≈ 2.79 to 5.58 µM) | 2 to 4 (≈ 2.79 to 5.58 µM) | < 1 | > 64 | < 1 | 2 to 4 (≈ 2.79 to 5.58 µM) | > 64 | < 1 | < 1 | < 1 |  |  | 
6 | O=C(NCCN1CCN(C(=O)NC(C(=O)N[C@H]2Cc3ccc(F)c(C(=O)O)c3OB2O)c2cc(F)c(O)c(O)c2Cl)C1=O)Nc1cccc(O)c1 (stereo partly drawn) [Example 249, (3R)-3-(2-(2-chloro-5-fluoro-3,4-dihydroxyphenyl)-2-(3-(2-(3-(3-hydroxyphenyl)ureido)ethyl)-2-oxoimidazolidine-1-carboxamido)acetamido)-7-fluoro-2-hydroxy-3,4-dihydro-2H-benzo[e][1,2]oxaborinine-8-carboxylic acid] | < 1 | > 64 | 2 to 4 (≈ 2.73 to 5.46 µM) | < 1 | < 1 | 2 to 4 (≈ 2.73 to 5.46 µM) | < 1 | 2 to 4 (≈ 2.73 to 5.46 µM) | > 64 | < 1 | < 1 | > 64 | < 1 | < 1 | < 1 |  |  | 
7 | O=C(O)c1c(F)ccc2c1OB(O)[C@@H](NC(=O)C(NC(=O)N1CCN(S(=O)(=O)CCNC(=O)[C@@H]3CCCN3)C1=O)c1cc(F)c(O)c(O)c1Cl)C2 (stereo partly drawn) [Example 265, (3R)-3-(2-(2-chloro-5-fluoro-3,4-dihydroxyphenyl)-2-(2-oxo-3-((2-((S)-pyrrolidine-2-carboxamido)ethyl)sulfonyl)imidazolidine-1-carboxamido)acetamido)-7-fluoro-2-hydroxy-3,4-dihydro-2H-benzo[e][1,2]oxaborinine-8-carboxylic acid] | < 1 | 16 to 32 (≈ 21.1 to 42.2 µM) | 2 to 4 (≈ 2.64 to 5.27 µM) | < 1 | < 1 | 2 to 4 (≈ 2.64 to 5.27 µM) | 2 to 4 (≈ 2.64 to 5.27 µM) | < 1 | > 64 | < 1 | < 1 | 16 to 32 (≈ 21.1 to 42.2 µM) | < 1 | < 1 | 2 to 4 (≈ 2.64 to 5.27 µM) |  |  | 
8 | O=C(NCCCS(=O)(=O)N1CCN(C(=O)N[C@H](C(=O)N[C@H]2Cc3ccc(F)c(C(=O)O)c3OB2O)c2cc(F)c(O)c(O)c2Cl)C1=O)c1cccc(O)c1 [Example 270, (R)-3-((S)-2-(2-chloro-5-fluoro-3,4-dihydroxyphenyl)-2-(3-((3-(3-hydroxybenzamido)propyl)sulfonyl)-2-oxoimidazolidine-1-carboxamido)acetamido)-7-fluoro-2-hydroxy-3,4-dihydro-2H-benzo[e][1,2]oxaborinine-8-carboxylic acid] | < 1 | > 64 | 32 to 64 (≈ 40.2 to 80.4 µM) | 8 to 16 (≈ 10.1 to 20.1 µM) | < 1 | 32 to 64 (≈ 40.2 to 80.4 µM) | 32 to 64 (≈ 40.2 to 80.4 µM) | > 128 | > 64 | < 1 | > 128 | > 64 | 2 to 4 (≈ 2.51 to 5.03 µM) | > 128 | 8 to 16 (≈ 10.1 to 20.1 µM) |  |  | 
9 | O=C(NCCCN1CCN(C(=O)N[C@@H](C(=O)N[C@H]2Cc3ccc(F)c(C(=O)O)c3OB2O)c2cc(F)c(O)c(O)c2Cl)C1=O)c1cccc(O)c1 [Example 255, (R)-3-((R)-2-(2-chloro-5-fluoro-3,4-dihydroxyphenyl)-2-(3-(3-(3-hydroxybenzamido)propyl)-2-oxoimidazolidine-1-carboxamido)acetamido)-7-fluoro-2-hydroxy-3,4-dihydro-2H-benzo[e][1,2]oxaborinine-8-carboxylic acid] | < 1 | 16 to 32 (≈ 21.9 to 43.7 µM) | < 1 | < 1 | < 1 | < 1 | < 1 | < 1 | > 64 | < 1 | < 1 | 16 to 32 (≈ 21.9 to 43.7 µM) | < 1 | < 1 | < 1 |  |  | 
